According to US9808473B2, “Preparation and use of 3-pyridyl substituted-6,6-difluoro bicyclic himbacine derivatives as par-1 receptor antagonists” (Merck Sharp & Dohme Corp., priority 2013, dated 2017):

Assays:
PAR-1 receptor = target: T1, PAR-1 receptor (Homo sapiens, UniProt P25116); experiment: PAR-1 FLIPR Assay; type: cell-based; conditions: HEK 293 cells, calcium signal after PAR-1 selective receptor-activating peptide at EC80
T1 construct: endogenous in cells; host or cells: HEK 293
T1 sequence (P25116 22-425): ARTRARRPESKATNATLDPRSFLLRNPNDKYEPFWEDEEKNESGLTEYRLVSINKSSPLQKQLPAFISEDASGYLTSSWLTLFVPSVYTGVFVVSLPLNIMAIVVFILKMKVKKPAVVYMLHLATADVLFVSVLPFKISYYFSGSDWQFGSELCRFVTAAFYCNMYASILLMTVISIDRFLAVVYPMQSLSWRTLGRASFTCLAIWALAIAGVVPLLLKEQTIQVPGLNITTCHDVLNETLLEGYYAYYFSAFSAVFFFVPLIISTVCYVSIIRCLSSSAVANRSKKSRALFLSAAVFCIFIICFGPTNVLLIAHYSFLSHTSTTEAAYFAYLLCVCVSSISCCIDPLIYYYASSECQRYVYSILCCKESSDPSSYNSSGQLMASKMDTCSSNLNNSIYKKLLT
Method: This assay measures the potency of the inventive compounds as PAR-1 receptor antagonists.
Frozen HEK 293 Cells were plated in 384-well PDL coated plates at 12000 cells/well in 50 uL of DMEM media containing 10% FBS, pen/strep/L-Glutamine and non-essential amino acids, incubated overnight at 37° C./5% CO2. Media was then removed from the cells, incubated with 33 uL of Calcium-5 dye in assay buffer (Hank's buffer containing 20 mM HEPES, 0.04% Chaps and 2.5 mM Probenecid) for 60 minutes at 37° C. 2 uL of varying concentrations of compound in 40% DMSO in assay buffer (final DMSO concentration is 2.3%) were then added to the cells and incubated at 25° C. for 30 minutes. The plates were added to the FLIPR Tetra®, the device added 5 uL of PAR-1 selective receptor-activating peptide (sequence Ala-parafluoroPhe-Arg-Cha-Cit-Try-Nh2, prepared in water) at a concentration equal to the effective concentration that achieved 80% activation of signaling on the day of the experiment. The range of peptide was from 1.5-3 μM. The final volume was 40 uL/well, with 2% DMSO. The FLIPR was read at an excitation wavelength of 480 nm and an emission wavelength of 535 nm, and performed 60 scans over a 1-2 min reading time. The data were analyzed by taking the peak signal over a portion of the range of the 60 scans and dividing this signal by the minimum signal for that same range. The data were expressed as percent inhibition of the maximum divided by the minimum signal achieved at 80% activation produced by the PAR1 activating peptide on the test day. The compounds of Examples 1-9 were tested in the assay described above and the data collected for these compounds is provided.

[1] = target: CYP3A4 (column heading prints CYP2D6; method and table sentence say CYP3A4) (Homo sapiens, UniProt P08684); experiment: CYP MUX (3A4) RI; type: in vitro ADME; conditions: pH 7.4, probe testosterone (75 µM); human liver microsomes; method describes testosterone as substrate for 3A4
Description: This assay measures inhibition of CYP3A4 by a compound. Cytochromes P450 (CYPs) constitute a superfamily of heme-containing enzymes that recognize and metabolize a large number structurally diverse xenobiotics in the human body. CYP3A4 constitutes the largest portion of CYP enzymes in the liver that accounts for the metabolism of almost 50% of all drugs. This assay is used to evaluate the potential of a compound for developing DDIs. (Clarke, S. E.; Jones B. C. Drug-Drug Interactions, New York: Marcel Dekker; 2002. pp. 53-88).
Compound dilutions and assay-ready plates were prepared on a TTP Labtech Mosquito® HTS. Assay conduction was fully automated on a customized Screening Platform from Caliper (now PerkinElmer) containing a Mitsubishi robotic plate handler, Liconic incubators, a Caliper Zephyr® liquid handling workstation equipped with temperature-controlled deck positions, a Biotek MultiFlo™ dispenser and an Agilent PlateLoc heat sealer. Assay plates were Corning Costar® 384 well PP plates. High throughput mass spectrometric readout was performed on a RapidFire® 300 system coupled to an AB Sciex API 4000™ triple quadrupole device. CYP isoform 3A4 was incubated in a separate reaction of 50 μL final volume. 25 μL of HLM (human liver microsomes, BD UltraPool™ 150, 0.25 mg/mL final concentration) and the respective substrate, testosterone (75 μM) for 3A4, in potassium phosphate buffer (100 mM, pH=7.4) were added to 250 nL of stamped compound solution (10 mM in DMSO). The reactions were started upon addition of 25 μL of a co-factor solution containing magnesium chloride (3.3 mM), glucose-6-phosphate (3.3 mM), glucose-6-phosphate dehydrogenase (1.4 units) and NADP (1 mM) in potassium phosphate buffer (100 mM, pH=7.4) and incubated on deck at 37° C. for 10 min. 8 μL of each reaction were transferred to the same readout plated filled with 48 μL of stop solution containing internal standards (concentration in final readout plate), 6-hydroxytestosterone-D7 (0.5 μM), 4′-hydroxydiclofenac-D4′-(0.2 μM), and dextrorphan-D3 (0.01 μM), in acetonitrile with 0.5% formic acid. After heat sealing, plates were stored at −20° C. for at least 30 min, centrifuged and subjected directly to RapidFire®/MS analysis.
(§1) Table 4 summarizes the selectivity of the inventive compounds in the CYP3A4 assay and the ability of the inventive compound to inhibit hERG.

hERG channel = target: T2, hERG channel (Homo sapiens, UniProt Q12809); experiment: MK-499 Filter Binding Assay; conditions: [35S]MK-0499 radioligand competition, membranes of HEK293 cells expressing hERG, read-out: MK499 IC50; for IC50 at 90 min: human, pH 7.4, probe [35S]MK-0499 radioligand
T2 construct: expressed in transfected cells; host or cells: HEK293, stably transfected; membranes
Description: MK-499 Filter Binding Assay
This assay is used to evaluate the potential of a compound to cause drug-induced log QT syndrome.
Drug cardiac arrhythmia is an important safety concern for pharmaceutical development and health regulatory authorities. Blockade of heterologously-expressed human ether-à-go-go gene (hERG) channel prolongs the duration of the cardiac action potential leading to a long QT interval that can lead to sudden death (De Ponti, F.; et at Drug Safety 2002, 25, pp. 263-286). It is important to have compounds devoid of hERG channel activity as measured by an in vitro assay. Affinity of compounds for the hERG channel was evaluated in radioligand competition experiments using HEK293 cells that were stably transfected with the hERG channel and radiolabeled ligand, MK-499 a potent antiarrhythmic. This assay correlates well with QT prolongation in vivo (Jamieson, C.; et al., J. Med. Chem. 2006, 49, pp. 5029-5046).
25 μL Target membranes (in assay buffer: 10 mM HEPES/NaOH, pH 7.4, 70 mM NaCl, 60 mM KCl, 2 mM MgCl2, 1 mM CaCl2) purified from a HEK293 cell line expressing the human Ether-à-go-go Related Gene (hERG) ion channel, 1 μL test compound in 10 mM DMSO and 25 μL (6,000 cpm/well; in assay buffer) [35S]MK-0499 radioligand (Merck/Perkin Elmer) are added to the assay plate (Axygen; 384 Deep well “Diamond Plate”, clear). After incubation of the binding reaction at room temperature (RT) for 90 min 50 μL of the assay were transferred to a MultiscreenHTS 384 FC filter plate (Millipore), which has been pre-wetted with 20 μL 0.01% PEI/0.01% Triton X-100 for at least 30 min at RT. Then, 30 μL it wash buffer (10 mM HEPES/NaOH, pH 7.4, 130 mM NaCl, 2 mM MgCl2, 1 mM CaCl2) equilibrated to RT were added to each well of the assay plate and subsequently transferred to the filter plate. The assay mixture was aspirated through the filter plate using a Biotek ELx405™ washer. The filter plate was washed twice with 100 μl cold wash buffer per wash and well and then dried in a drying oven for at least 75 min at 55° C. Afterwards, the bottom of each filter plate was heat sealed with a solid foil seal, then 10 μL of Microscint™ 0 (Perkin Elmer) were added to each well of the filter plate and finally, the top of each filter plate was sealed with a clear seal. The plates were stored for at least 20 min in a MicroBeta2 reader (Perkin Elmer) before they are counted (60 sec/well).
as §1

T2 sequence (Q12809 whole entry): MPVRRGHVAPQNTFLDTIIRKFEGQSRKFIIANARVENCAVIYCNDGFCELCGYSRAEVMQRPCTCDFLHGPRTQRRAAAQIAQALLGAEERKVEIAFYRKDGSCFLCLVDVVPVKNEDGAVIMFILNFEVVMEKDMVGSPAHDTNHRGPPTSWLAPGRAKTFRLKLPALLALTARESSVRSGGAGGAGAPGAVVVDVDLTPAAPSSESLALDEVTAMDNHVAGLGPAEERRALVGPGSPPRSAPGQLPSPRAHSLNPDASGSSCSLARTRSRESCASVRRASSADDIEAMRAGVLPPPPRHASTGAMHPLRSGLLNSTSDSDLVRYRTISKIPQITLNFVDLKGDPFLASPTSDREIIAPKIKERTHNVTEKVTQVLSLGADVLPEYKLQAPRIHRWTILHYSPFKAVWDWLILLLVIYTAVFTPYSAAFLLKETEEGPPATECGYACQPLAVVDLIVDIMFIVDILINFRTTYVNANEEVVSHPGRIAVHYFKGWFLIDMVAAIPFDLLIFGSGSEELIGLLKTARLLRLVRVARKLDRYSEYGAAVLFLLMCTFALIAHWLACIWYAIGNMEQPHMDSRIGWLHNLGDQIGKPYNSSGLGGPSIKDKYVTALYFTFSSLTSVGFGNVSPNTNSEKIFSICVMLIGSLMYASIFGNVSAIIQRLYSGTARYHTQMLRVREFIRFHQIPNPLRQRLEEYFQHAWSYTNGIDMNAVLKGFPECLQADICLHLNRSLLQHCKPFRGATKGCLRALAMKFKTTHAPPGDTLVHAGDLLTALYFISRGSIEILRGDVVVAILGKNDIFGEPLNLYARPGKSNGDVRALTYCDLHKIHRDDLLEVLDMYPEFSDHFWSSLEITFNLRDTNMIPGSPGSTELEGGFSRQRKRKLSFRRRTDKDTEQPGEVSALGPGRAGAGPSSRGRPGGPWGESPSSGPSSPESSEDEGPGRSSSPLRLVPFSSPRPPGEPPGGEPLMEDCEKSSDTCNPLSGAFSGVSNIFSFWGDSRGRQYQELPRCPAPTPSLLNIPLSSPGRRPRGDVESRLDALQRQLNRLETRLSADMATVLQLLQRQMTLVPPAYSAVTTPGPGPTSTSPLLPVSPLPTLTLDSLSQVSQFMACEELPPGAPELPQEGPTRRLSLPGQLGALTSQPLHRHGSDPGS
CYP3A4 (column heading prints CYP2D6; method and table sentence say CYP3A4), sequence (P08684 2-503): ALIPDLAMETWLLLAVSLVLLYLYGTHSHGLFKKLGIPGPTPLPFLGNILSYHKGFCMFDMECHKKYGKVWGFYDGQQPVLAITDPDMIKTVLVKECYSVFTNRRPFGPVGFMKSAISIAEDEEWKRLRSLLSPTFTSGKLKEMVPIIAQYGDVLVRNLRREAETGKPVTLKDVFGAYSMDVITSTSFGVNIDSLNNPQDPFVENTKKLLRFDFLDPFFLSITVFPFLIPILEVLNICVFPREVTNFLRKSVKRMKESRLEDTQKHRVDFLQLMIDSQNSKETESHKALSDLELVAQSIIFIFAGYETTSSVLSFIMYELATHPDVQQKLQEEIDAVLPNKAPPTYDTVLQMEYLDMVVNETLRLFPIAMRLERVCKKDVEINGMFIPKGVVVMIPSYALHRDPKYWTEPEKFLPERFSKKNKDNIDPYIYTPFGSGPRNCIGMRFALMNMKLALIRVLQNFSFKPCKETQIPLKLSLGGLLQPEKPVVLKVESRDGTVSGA

SMILES	IC50 (PAR-1 receptor)	IC50 at 10 min [1]	IC50 (hERG channel)	IC50 at 90 min (hERG channel)
C[C@H]1OC(=O)[C@]2(O)CC(F)(F)[C@@H](C)[C@H](/C=C/c3ccc(-c4cccnc4-c4ccccc4)cn3)[C@H]12 [Example 2, (3R,3aR,4R,5S,7aS)-6,6-difluoro-7a-hydroxy-3,5-dimethyl-4-((E)-2-(2′-phenyl-[3,3′-bipyridin]-6-yl)vinyl)hexahydroisobenzofuran-1(3H)-one]	0.009 µM	28.5 µM	39.8 µM	
C[C@H]1OC(=O)[C@]2(O)CC(F)(F)[C@@H](C)[C@H](/C=C/c3ccc(-c4cccnc4N4CC(F)(F)C4)cn3)[C@H]12 [Example 9, (3R,3aR,4R,5S,7aS)-4-((E)-2-(2′-(3,3-difluoroazetidin-1-yl)-[3,3′-bipyridin]-6-yl)vinyl)-6,6-difluoro-7a-hydroxy-3,5-dimethylhexahydroisobenzofuran-1(3H)-one]	0.0924 µM	≥ 50 µM		≥ 60 µM
C[C@H]1OC(=O)[C@]2(O)CC(F)(F)[C@@H](C)[C@H](/C=C/c3ccc(-c4cccnc4F)cn3)[C@H]12 [Example 5]	0.0162 µM	≥ 50 µM		≥ 60 µM
C[C@H]1OC(=O)[C@]2(O)CC(F)(F)[C@@H](C)[C@H](/C=C/c3ccc(-c4cccnc4C#N)cn3)[C@H]12 [Example 1, 6′-((E)-2-((3R,3aR,4R,5S,7aS)-6,6-difluoro-7a-hydroxy-3,5-dimethyl-1-oxooctahydroisobenzofuran-4-yl)vinyl)-[3,3′-bipyridine]-2-carbonitrile]	0.0059 µM	≥ 50 µM		≥ 60 µM
Cc1ccc(-c2ncccc2-c2ccc(/C=C/[C@@H]3[C@@H]4[C@@H](C)OC(=O)[C@]4(O)CC(F)(F)[C@H]3C)nc2)s1 [Example 7, (3R,3aR,4R,5S,7aS)-6,6-difluoro-7a-hydroxy-3,5-dimethyl-4-((E)-2-(2′-(5-methylthiophen-2-yl)-[3,3′-bipyridin]-6-yl)vinyl)hexahydroisobenzofuran-1(3H)-one]	0.0152 µM	≥ 50 µM	20.8 µM	
C[C@H]1OC(=O)[C@]2(O)CC(F)(F)[C@@H](C)[C@H](/C=C/c3ccc(-c4cccnc4Cl)cn3)[C@H]12 [Example 4, (3R,3aR,4R,5S,7aS)-4-((E)-2-(2′-chloro-[3,3′-bipyridin]-6-yl)vinyl)-6,6-difluoro-7a-hydroxy-3,5-dimethylhexahydroisobenzofuran-1(3H)-one]	0.0078 µM	≥ 50 µM	18.7 µM	
C[C@H]1OC(=O)[C@]2(O)CC(F)(F)[C@@H](C)[C@H](/C=C/c3ccc(-c4cccnc4-c4cncn4C)cn3)[C@H]12 [Example 8, (3R,3aR,4R,5S,7aS)-6,6-difIuoro-7a-hydroxy-3,5-dimethyl-4-((E)-2-(2′-(l-methyl-1H-imidazol-5-yl)-[3,3′-bipyridin]-6-yl)vinyl)hexahydroisobenzofuran-1(3H)-one]		≥ 50 µM		≥ 60 µM
COc1ncccc1-c1ccc(/C=C/[C@@H]2[C@@H]3[C@@H](C)OC(=O)[C@]3(O)CC(F)(F)[C@H]2C)nc1 [Example 3, (3R,3aR,4R,5S,7aS)-6,6-difluoro-7a-hydroxy-4-((E)-2-(2′-methoxy-[3,3′-bipyridin]-6-yl)vinyl)-3,5-dimethylhexahydroisobenzofuran-1(3H)-one]	0.0054 µM	≥ 50 µM		≥ 60 µM
C[C@H]1OC(=O)[C@]2(O)CC(F)(F)[C@@H](C)[C@H](/C=C/c3ccc(-c4cccnc4C4CC4)cn3)[C@H]12 [Example 6, (3R,3aR,4R,5S,7aS)-4-((E)-2-(2′-cyclopropyl-[3,3′-bipyridin]-6-yl)vinyl)-6,6-difluoro-7a-hydroxy-3,5-dimethylhexahydroisobenzofuran-1(3H)-one]	0.0104 µM	≥ 50 µM		≥ 60 µM
